# Values quoted from earlier work, collected in patent publication US10519176B2, “Crystalline forms” (GRUNENTHAL GMBH, priority 2010, dated 2019).
# Experiments:
# [1] = according to FDA SBA
# [2] = in vivo
# [3] = according to FDA SBA; remark: listed apart in the source
smiles,measurement,setting,value
"O=P(O)(O)C(O)(Cn1ccnc1)P(=O)(O)O [Zoledronic acid, (1-hydroxy-2-imidazol-1-yl-1-phosphono-ethyl)phosphonic acid]",permeability in the GI tract,[1],poor permeability
same,solubility in 0.1 N HCl solution,0.1 N HCl solution,sparingly soluble
same,solubility in 0.1 N NaOH,0.1 N NaOH,freely soluble
same,solubility in various organic solvents,various organic solvents,practically insoluble
same,solubility in water,water,sparingly soluble
same,gastric and intestinal irritations,[2],severe gastric and intestinal irritations
same,oral bioavailability,[3],approximately 1%
